What was measured:
Assay type in all cases: biochemical
[1] = target: PKK in kaolin activated human platelet poor plasma (Homo sapiens (Human), UniProt P03952); assay: Inhibition of PKK in kaolin activated human PPP; conditions: global fit over 25, 75, 250, 750 μg/mL kaolin
Procedure: Platelet poor plasma (PPP) obtained from human wholeblood, anticoagulated with Na-Citrat, was incubated with various concentrations of the test compound together with either 25, 75, 250, or 750 μg/mL kaolin in assay buffer for 20 min at 37° C. such that for each kaolin dose used a concentration response was obtained for the test compound.

human TK1 = human TK1 (Homo sapiens (Human), UniProt P06870); assay: Inhibition of TK1 (Ki); conditions: column head prints IC50, text above the table says Ki values
Procedure: The ability of compounds of formula (I) to inhibit plasma kallikrein (PKK), Factor Xlla (FXIIa), Factor Xla (FXIa), Factor Xa (FXa), Factor Ila (alpha-thrombin; FIIa), plasmin, trypsin, tissue kallikrein 1 (TK1), Factor VIIa (FVIIa), or FVIIa complexed with Tissue Factor, phospholipids and CaCl2 (FVIIa/TF/PL/CaCl2) was determined using the following biochemical assays in assay buffer (100 mM Tris, 150 mM NaCL, adjusted to a pH of 7.8 with HCl, and containing 0.1% (w/v) BSA and 0.05% (v/v) Tween20) in the presence of 1% (v/v) DMSO: EVALUATION OF THE INHIBITION OF PKK USING AN ENDPOINT ASSAY Human PKK (0.01 U/mL; Enzyme Research Laboratories) or rat PKK (0.625 nM; produced in-house) was incubated for 1 h at room temperature with 0.10 μM fluorogenic substrate H-Pro-Phe-Arg-AMC (11295 from Bachem) and various concentrations of the test compound in assay buffer. Subsequently, PPACK II (Calbiochem) was added as a stop solution to achieve a final concentration of 1 μM and fluorescence was measured using an Envision Reader (PerkinElmer) with the wavelength excitation setting of 355 nm and the wavelength emission setting of 460 nm.
Prior to the assay, human TK1 (R&D Systems) was activated by incubation with human trypsin (Calbiochem) in a 1:10,000 ratio for 15 min at 37° C. For assaying TK1 inhibitory activity, activated TK1 (31.25 nM or 1 U/mL) was incubated at 24° C. with 0.1 mM fluorogenic substrate H-Pro-Phe-Arg-AMC (11295 from Bachem) and various concentrations of the test compound in assay buffer. Measurements were performed in a kinetic interval every 2nd minute for 16 min using a Spectramax M5 (Molecular Devices) with the following settings of the wavelength excitation of 350 nm and wavelength emission of 450 nm.
The average Vmax values for the time interval from 2 to 12 min after initiation of the assay (expressed as either delta OD/min for assays using a chromogenic substrate or delta RFU/min for assays using a fluorigenic substrate, respectively) were plotted versus the Log of the concentration in molar of the evaluated inhibitor compound. The pIC50 values were then fitted using a four-parametric fitting procedure using GraphPad Prism (version 6; GraphPad Software, Inc.). Respective Ki values were obtained by correction of the IC50 values for the respective KM value of the used substrate (see Table A for the obtained KM values of the used substrates) using the following formula: […]
(§1) Where the IC50 is in molar and the KM value in mM.

Human PKK [2] = target: T1, Human PKK (Homo sapiens (Human), UniProt P03952); assay: Inhibition of PKK (Ki), kinetic assay; conditions: 24° C., IC50 corrected for KM
Procedure: Measurements were performed in a kinetic interval every 2nd minute for 16 min using a Spectramax M5 (Molecular Devices) with the following settings of the wavelength excitation of 350 nm and wavelength emission of 450 nm. The number of the compound corresponds to the number of the Example in the experimental section.
The pIC50 values were then fitted using a four-parametric fitting procedure using GraphPad Prism (version 6; GraphPad Software, Inc.).
as §1

Human PKK [3] = target: T1, Human PKK; assay: Inhibition of PKK, endpoint assay (human PKK); conditions: substrate H-Pro-Phe-Arg-AMC, 1 h room temperature
Procedure: Subsequently, PPACK II (Calbiochem) was added as a stop solution to achieve a final concentration of 1 μM and fluorescence was measured using an Envision Reader (PerkinElmer) with the wavelength excitation setting of 355 nm and the wavelength emission setting of 460 nm.

T1 sequence (P03952 391-638): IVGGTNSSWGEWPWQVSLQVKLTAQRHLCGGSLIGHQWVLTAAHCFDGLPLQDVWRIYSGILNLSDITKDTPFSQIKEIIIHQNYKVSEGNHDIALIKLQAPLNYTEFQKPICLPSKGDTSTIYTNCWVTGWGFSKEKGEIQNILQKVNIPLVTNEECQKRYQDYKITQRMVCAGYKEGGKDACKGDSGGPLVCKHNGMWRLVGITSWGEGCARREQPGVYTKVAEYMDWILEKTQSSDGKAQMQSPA
T1 sequence (P03952 20-390 partner): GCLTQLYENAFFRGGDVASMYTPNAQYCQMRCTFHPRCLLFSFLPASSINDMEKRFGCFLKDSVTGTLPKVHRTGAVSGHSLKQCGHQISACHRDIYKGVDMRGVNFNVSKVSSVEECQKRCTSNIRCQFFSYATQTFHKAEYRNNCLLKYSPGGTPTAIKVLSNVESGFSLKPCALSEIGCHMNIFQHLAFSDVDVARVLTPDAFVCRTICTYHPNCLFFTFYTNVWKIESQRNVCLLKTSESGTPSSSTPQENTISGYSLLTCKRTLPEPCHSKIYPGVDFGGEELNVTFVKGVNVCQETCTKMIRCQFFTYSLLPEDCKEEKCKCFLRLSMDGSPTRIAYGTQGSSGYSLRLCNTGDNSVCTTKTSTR
PKK in kaolin activated human platelet poor plasma, sequence (P03952 391-638): as the sequence (P03952 391-638) above
PKK in kaolin activated human platelet poor plasma, sequence (P03952 20-390 partner): as the sequence (P03952 20-390 partner) above
human TK1, sequence (P06870 25-262): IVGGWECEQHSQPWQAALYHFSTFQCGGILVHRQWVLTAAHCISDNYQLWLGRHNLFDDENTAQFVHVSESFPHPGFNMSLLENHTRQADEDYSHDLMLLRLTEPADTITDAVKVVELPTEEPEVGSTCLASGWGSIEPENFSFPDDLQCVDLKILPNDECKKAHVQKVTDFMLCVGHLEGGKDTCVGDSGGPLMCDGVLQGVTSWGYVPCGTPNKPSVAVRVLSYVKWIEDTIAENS

IC90 [1] | IC50 (human TK1) | Ki (Human PKK [2]) | IC50 (Human PKK [3]) | Compound
291 nM | > 10000 nM | 0.5 nM | 0.7 nM | Cc1nc(N2CC3CC3C2)ccc1Cc1csc(C(=O)N[C@@H]2CCc3c(C)n[nH]c32)c1 (stereo partly drawn) [Example 6, 4-[(6-{3-Azabicyclo[3.1.0]hexan-3-yl}-2-methylpyridin-3-yl)methyl]-N-[(6R)-3-methyl-1H,4H,5H,6H-cyclopenta[c]pyrazol-6-yl]thiophene-2-carboxamide]
545 nM | – | 1 nM | 2 nM | Cc1nc(N2CC(C)(C)C2)ccc1Cn1cc(C(=O)N[C@@H]2CCc3c2n[nH]c3C)cn1 [Example 67, 1-{[6-(3,3-Dimethylazetidin-1-yl)-2-methylpyridin-3-yl]methyl}-N-[(6R)-3-methyl-2H,4H,5H,6H-cyclopenta[c]pyrazol-6-yl]-1H-pyrazole-4-carboxamide]
– | > 10000 nM | 0.1 nM | 0.9 nM | COCc1nn(Cc2ccc(N3CC4CC4C3)nc2C)cc1C(=O)N[C@@H]1CCc2c(C)n[nH]c21 (stereo partly drawn) [Example 16, 1-[(6-{3-Azabicyclo[3.1.0]hexan-3-yl}-2-methyl-pyridin-3-yl)methyl]-3-(methoxymethyl)-N-[(6R)-3-methyl-1H,4H,5H,6H-cyclopenta[c]pyrazol-6-yl]-1H-pyrazole-4-carboxamide]
– | > 10000 nM | 0.3 nM | 1 nM | Cc1nc(N2CC3CC3C2)ccc1Cn1cc(C(=O)N[C@@H]2CCc3c(C)n[nH]c32)c(C)n1 (stereo partly drawn) [Example 19, 1-[(6-{3-Azabicyclo[3.1.0]hexan-3-yl}-2-methyl-pyridin-3-yl)methyl]-3-methyl-N-[(6R)-3-methyl-1H,4H,5H,6H-cyclopenta[c]pyrazol-6-yl]-1H-pyrazole-4-carboxamide]
598 nM | – | – | 1 nM | Cc1nc(N2CC3(CC3)C2)ccc1Cn1cc(C(=O)N[C@@H]2CCc3c(C)n[nH]c32)cn1 [Example 11]

Second part, the compound before the results:

Compound | IC90 [1] | IC50 (human TK1) | Ki (Human PKK [2]) | IC50 (Human PKK [3])
Cc1nc(N2CC3CC3C2)ccc1Cn1cc(C(=O)N[C@@H]2CCc3c(C)n[nH]c32)c2cncnc21 (stereo partly drawn) [Example 17, 7-[(6-{3-Azabicyclo[3.1.0]hexan-3-yl}-2-methyl-pyridin-3-yl)methyl]-N-[(6R)-3-methyl-1H,4H,5H,6H-cylcopenta[c]pyrazol-6-yl]-7H-pyrrolo[2,3-d]pyrimidine-5-carboxamide] | – | > 10000 nM | 0.1 nM | 0.9 nM
COCc1nn(Cc2ccc(N3CC4(CC4)C3)nc2C)cc1C(=O)N[C@@H]1CCc2c(C)n[nH]c21 [Example 22, 1-[(6-{5-Azaspiro[2.3]hexan-5-yl}-2-methylpyridin-3-yl)methyl]-3-(methoxymethyl)-N-[(6R)-3-methyl-1H,4H,5H,6H-cyclopenta[c]pyrazol-6-yl]-1H-pyrazole-4-carboxamide] | – | > 10000 nM | 0.1 nM | 2 nM
COc1nn(Cc2ccc(N3CC4CC4C3)nc2C)cc1C(=O)N[C@@H]1CCc2c(C)n[nH]c21 (stereo partly drawn) [Example 20, 1-[(6-{3-Azabicyclo[3.1.0]hexan-3-yl}-2-methyl-pyridin-3-yl)methyl]-3-methoxy-N-[(6R)-3-methyl-1H,4H,5H,6H-cyclopenta[c]pyrazol-6-yl]-1H-pyrazole-4-carboxamide] | – | > 10000 nM | 0.2 nM | 1 nM
Cc1nc(N2CC3CC3C2)ncc1Cn1cc(C(=O)N[C@@H]2CCc3c(C)n[nH]c32)c2cncnc21 (stereo partly drawn) [Example 23, 7-[(2-{3-Azabicyclo[3.1.0]hexan-3-yl}-4-methyl-pyrimidin-5-yl)methyl]-N-[(6R)-3-methyl-1H,4H,5H,6H-cyclopenta[c]pyrazol-6-yl]-7H-pyrrolo[2,3-d]pyrimidine-5-carboxamide] | – | > 10000 nM | 0.3 nM | 2 nM
Cc1nc(N2CC3C(C2)C3(F)F)ncc1Cn1cc(C(=O)N[C@@H]2CCc3c(C)n[nH]c32)c2cncnc21 (stereo partly drawn) [Example 21, 7-[(2-{6,6-Difluoro-3-azabicyclo[3.1.0]hexan-3-yl}-4-methylpyrimidin-5-yl)methyl]-N-[(6R)-3-methyl-1H,4H,5H,6H-cyclopenta[c]pyrazol-6-yl]-7H-pyrrolo[2,3-d]pyrimidine-5-carboxamide] | – | > 10000 nM | 0.1 nM | 1 nM

— patent US10695334B2, “Heteroaromatic carboxamide derivatives as plasma kallikrein inhibitors” (Boehringer Ingelheim International GmbH, priority 2018, dated 2020)
